Reference: publication PMC6511888, “Synthesis, Biological Evaluation, and Molecular Modeling Studies of New Thiadiazole Derivatives as Potent P2X7 Receptor Inhibitors” (Frontiers in Chemistry, 2019)

Assays:
[1] = biological target: T1, P2Y2R (Mus musculus, UniProt P35383); experiment: 2-S-UTP-activated [Ca2+]i shifts in mouse peritoneal macrophages; type: cell-based; settings: 1 μM
T1 construct: endogenous in cells; host or cells: mouse peritoneal macrophages
Protocol: (§1) Mouse peritoneal macrophages, PC12 cells, J774 cells, and HEPG2 cells were analyzed by fluorescence microscopy to measure the intracellular Ca^2+ concentrations ([Ca^2+]i). Cells were incubated with 2 μM Fura-2-AM (Molecular Probes) for 30 min, and the [Ca^2+]i mobilization was measured in the F340/F380 ratios with a FlexStation 3 multimode microplate reader (Molecular Devices). Cells were plated in translucent 96-well plates (BD Falcon) for 15 min and then washed and incubated in a saline solution with 150 NaCl, 5 KCl, 1 MgCl2, 1 CaCl2, and 10 HEPES (pH 7.4) for 30 min before measurements of [Ca^2+]i. The Ca^2+ influx was induced by stimulating cells with P2 receptor agonists. P2 receptor antagonists were added 10 min before P2 receptor agonist addition. […] Ionomycin was considered a positive control, and the other recordings were normalized in relation to the AUC.

[2] = biological target: T2, P2X4R (Rattus norvegicus, UniProt P51577); experiment: ATP-induced [Ca2+]i shifts potentiated by ivermectin in NR8383 alveolar macrophage cell line; type: cell-based; settings: 1 μM; NR8383 cells
T2 construct: endogenous in cells; host or cells: NR8383 rat alveolar macrophage cell line
T2 sequence (P51577 1-388): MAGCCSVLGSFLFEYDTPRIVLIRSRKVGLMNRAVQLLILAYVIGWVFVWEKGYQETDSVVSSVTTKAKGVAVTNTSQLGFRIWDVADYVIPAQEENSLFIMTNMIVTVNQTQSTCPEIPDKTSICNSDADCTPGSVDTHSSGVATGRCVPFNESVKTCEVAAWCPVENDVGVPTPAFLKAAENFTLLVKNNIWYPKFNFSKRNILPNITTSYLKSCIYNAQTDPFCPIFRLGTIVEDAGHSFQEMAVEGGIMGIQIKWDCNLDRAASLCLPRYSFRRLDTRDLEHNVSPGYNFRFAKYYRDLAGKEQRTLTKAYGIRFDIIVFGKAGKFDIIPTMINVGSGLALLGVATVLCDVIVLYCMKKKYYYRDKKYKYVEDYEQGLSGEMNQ

[3] = biological target: T3, P2Y13R (Homo sapiens, UniProt Q9BPV8); experiment: ADPβS-induced [Ca2+]i shifts in HEP2G cells; type: cell-based; settings: 1 μM
T3 construct: endogenous in cells; host or cells: HEP2G (HEPG2) cells
T3 sequence (Q9BPV8 1-354): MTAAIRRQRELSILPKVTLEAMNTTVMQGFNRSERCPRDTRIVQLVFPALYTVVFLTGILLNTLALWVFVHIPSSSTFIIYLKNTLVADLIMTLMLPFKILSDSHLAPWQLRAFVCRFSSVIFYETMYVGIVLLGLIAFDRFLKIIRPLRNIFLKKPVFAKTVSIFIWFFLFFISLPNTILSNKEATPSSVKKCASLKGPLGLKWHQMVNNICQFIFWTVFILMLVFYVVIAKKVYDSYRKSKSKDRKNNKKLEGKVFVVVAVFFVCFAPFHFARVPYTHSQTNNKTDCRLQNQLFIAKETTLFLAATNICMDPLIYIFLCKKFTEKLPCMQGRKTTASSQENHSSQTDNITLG
Protocol: as §1

[4] = biological target: T4, P2Y4R (Mus musculus, UniProt Q9JJS7); experiment: MRS4062-induced [Ca2+]i shifts in mice peritoneal macrophages; type: cell-based; settings: 1 μM
T4 construct: endogenous in cells; host or cells: mouse peritoneal macrophages
T4 sequence (Q9JJS7 whole entry): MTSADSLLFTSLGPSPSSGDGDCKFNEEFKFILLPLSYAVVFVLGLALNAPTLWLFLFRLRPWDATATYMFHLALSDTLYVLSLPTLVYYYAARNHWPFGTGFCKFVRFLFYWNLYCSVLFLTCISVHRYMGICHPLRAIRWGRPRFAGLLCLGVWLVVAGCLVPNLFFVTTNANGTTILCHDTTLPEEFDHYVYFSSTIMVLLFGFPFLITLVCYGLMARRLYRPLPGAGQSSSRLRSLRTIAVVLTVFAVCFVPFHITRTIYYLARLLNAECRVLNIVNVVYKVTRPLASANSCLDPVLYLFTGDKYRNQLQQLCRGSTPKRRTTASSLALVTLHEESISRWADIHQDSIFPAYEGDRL
Protocol: as §1

[5] = tested on: P2Y11R; experiment: NAADP-induced [Ca2+]i shifts in mouse peritoneal macrophages; type: cell-based; settings: 1 μM
Protocol: as §1

[6] = tested on: P2X7R-mediated IL-1β release; experiment: ATP-induced IL-1β release (ELISA) in differentiated THP-1 cells; type: cell-based, human; settings: ATP-induced IL-1β release; LPS/IFN-differentiated human THP-1 cells; read-out: THP-1 cells IC50
Protocol: P2X7R-mediated IL-1β release was obtained from differentiated THP-1 cells stimulated with lipopolysaccharide (LPS) before ATP addition. […] THP-1 cells were differentiated with 500 ng/ml phorbol 12-myristate 13-acetate (PMA) and 10 ng/ml IFN-γ cotreatment for 24 h. These cells were activated with 25 ng/ml LPS for 4 h. […] P2X7R antagonists (BBG and A740003) and thiadiazole analogs were added 30 min before the ATP stimulus. The supernatants were collected, centrifuged (1,000 rpm for 5 min at 4°C), and stored at −70°C after LPS incubation. IL-1β was quantified using a standard kit (ABCAM, Cambridge).

[7] = biological target: T5, P2X7R (Mus musculus, UniProt Q9Z1M0); experiment: Dye uptake assay (propidium iodide) in mouse peritoneal macrophages; type: cell-based; settings: mean ± SD
T5 construct: plated for 24 h before dye uptake assays, whole-cell patch clamp experiments, and IL-1β release assays; endogenous in cells; host or cells: mouse (Swiss Webster) peritoneal macrophages
T5 sequence (Q9Z1M0 1-595): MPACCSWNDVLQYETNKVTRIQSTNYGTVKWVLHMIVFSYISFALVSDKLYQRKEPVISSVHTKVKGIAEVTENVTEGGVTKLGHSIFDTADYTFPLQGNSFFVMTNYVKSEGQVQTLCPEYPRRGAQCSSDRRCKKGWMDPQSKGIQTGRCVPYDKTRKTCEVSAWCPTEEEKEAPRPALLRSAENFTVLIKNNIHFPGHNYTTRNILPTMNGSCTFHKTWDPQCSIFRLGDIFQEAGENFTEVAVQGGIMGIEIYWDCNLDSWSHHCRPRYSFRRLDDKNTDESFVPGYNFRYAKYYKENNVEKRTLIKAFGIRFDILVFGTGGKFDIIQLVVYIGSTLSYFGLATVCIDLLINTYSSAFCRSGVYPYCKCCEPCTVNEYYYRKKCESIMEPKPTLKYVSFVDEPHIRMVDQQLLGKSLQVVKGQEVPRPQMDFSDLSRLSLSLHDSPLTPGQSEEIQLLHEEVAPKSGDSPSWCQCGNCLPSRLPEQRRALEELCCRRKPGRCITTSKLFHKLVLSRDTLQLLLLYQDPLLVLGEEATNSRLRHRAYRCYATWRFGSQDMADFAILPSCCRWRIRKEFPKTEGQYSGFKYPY
Protocol: Our protocols adhered to the Ethical Principles in Animal Experimentation adopted by the Brazilian College of Animal Experimentation and approved by the FIOCRUZ Research Ethics Committee (Faria et al., [2005]; number L039- 2016). Male mouse (Swiss Webster) peritoneal macrophages were collected from peritoneal cavity lavage and plated for 24 h before dye uptake assays, whole-cell patch clamp experiments, and IL-1β release assays.
(§2) HEK-293 cells transfected with hP2X7R and mouse peritoneal macrophages were plated at 2.5 × 10^6 or 5 × 10^5 cells/ml, respectively, in 96-well culture plates containing DMEM with 10% FBS and anti-biotics (50 U/ml penicillin and […] streptomycin) in a humidified 5% CO2 atmosphere at 37°C for 24 h (Faria et al., [2018]).
[…] In the last 5 min of ATP incubation, propidium iodide for macrophages (PI; 750 nM) or ethidium bromide (EB; 25 μM) for HEK-293 cells was added to all wells. PI dye was excited at a wavelength of 530 nm, and its fluorescence emission was read at a wavelength of 590 nm using an M5 plate reader (Molecular Devices). EB dye was excited at a wavelength of 530 nm and emitted at a wavelength of 620 nm.

[8] = tested on: mouse peritoneal macrophages; experiment: LDH release assay (toxicity); type: cell-based; settings: BBG 750 nM; relative to maximum LDH release caused by 0.05% Triton X-100; mean ± SD
Protocol: (§3) Mouse peritoneal macrophages (5 × 10^5 cells) and HEK-293 cells transfected with P2X7R (5 × 10^5 cells) were plated in a 96-well-plate for 24 h before the treatment. […] The supernatant collected in this assay was used to measure the presence of LDH in the media using a cytotoxicity detection kit (Sigma kit for LDH) according to the manufacturer's instructions (Faria et al., [2018]).

[9] = LDH release assay (toxicity); type: cell-based, mouse; settings: mouse peritoneal macrophages; 24 h; read-out: Macrophages IC50 (toxic effect)
Protocol: as §3

[10] = biological target: T6, human P2X7R (Homo sapiens, UniProt Q99572); experiment: Dye uptake assay (ethidium bromide) in HEK-293 cells transfected with hP2X7R; type: cell-based; settings: ethidium uptake assay; HEK-293 cells transfected with human P2X7R; mean ± SD
T6 construct: expressed in transfected cells; host or cells: HEK-293
T6 sequence (Q99572 1-595): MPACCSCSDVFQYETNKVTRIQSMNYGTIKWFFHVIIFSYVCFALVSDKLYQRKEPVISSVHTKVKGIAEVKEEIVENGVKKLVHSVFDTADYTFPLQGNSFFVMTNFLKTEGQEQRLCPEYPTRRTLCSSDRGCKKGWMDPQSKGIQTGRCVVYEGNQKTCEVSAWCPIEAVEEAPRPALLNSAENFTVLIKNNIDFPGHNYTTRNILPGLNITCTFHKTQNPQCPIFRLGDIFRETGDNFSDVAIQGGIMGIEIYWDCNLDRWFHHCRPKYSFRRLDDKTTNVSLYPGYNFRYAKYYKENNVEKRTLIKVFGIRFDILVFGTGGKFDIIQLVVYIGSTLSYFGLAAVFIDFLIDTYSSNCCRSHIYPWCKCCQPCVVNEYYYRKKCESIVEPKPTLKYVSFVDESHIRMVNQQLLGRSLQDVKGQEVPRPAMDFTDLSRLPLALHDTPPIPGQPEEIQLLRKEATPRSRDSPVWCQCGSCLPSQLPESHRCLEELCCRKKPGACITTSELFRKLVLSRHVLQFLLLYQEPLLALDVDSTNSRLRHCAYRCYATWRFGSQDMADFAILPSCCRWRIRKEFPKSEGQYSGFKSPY
Protocol: HEK-293 cells expressing human P2X7R were maintained in Dulbecco's modified Eagle's medium (DMEM; Sigma-Aldrich) supplemented with 10% fetal bovine serum (FBS; Prolab, Br) and anti-biotics (50 U/ml penicillin and […] streptomycin) in a humidified 5% CO2 atmosphere at 37°C (Faria et al., [2018]). A total of 5 × 10^5 cells were plated at 37°C in a humidified 5% CO2 atmosphere for 24 h in a 96-well plate for dye uptake or IL-1β release assays.
as §2
P2X7R antagonist and thiadiazole analogs (1 nM to 0.5 mM) were incubated for 5 min before ATP (5 mM) treatment for 20 min. In the last 5 min of ATP incubation, propidium iodide for macrophages (PI; 750 nM) or ethidium bromide (EB; 25 μM) for HEK-293 cells was added to all wells. PI dye was excited at a wavelength of 530 nm, and its fluorescence emission was read at a wavelength of 590 nm using an M5 plate reader (Molecular Devices). EB dye was excited at a wavelength of 530 nm and emitted at a wavelength of 620 nm.

[11] = biological target: T7, P2Y12R (Mus musculus, UniProt Q9CPV9); experiment: 2MeSADP-activated [Ca2+]i shifts in mouse peritoneal macrophages; type: cell-based; settings: 1 μM
T7 construct: endogenous in cells; host or cells: mouse peritoneal macrophages
T7 sequence (Q9CPV9 whole entry): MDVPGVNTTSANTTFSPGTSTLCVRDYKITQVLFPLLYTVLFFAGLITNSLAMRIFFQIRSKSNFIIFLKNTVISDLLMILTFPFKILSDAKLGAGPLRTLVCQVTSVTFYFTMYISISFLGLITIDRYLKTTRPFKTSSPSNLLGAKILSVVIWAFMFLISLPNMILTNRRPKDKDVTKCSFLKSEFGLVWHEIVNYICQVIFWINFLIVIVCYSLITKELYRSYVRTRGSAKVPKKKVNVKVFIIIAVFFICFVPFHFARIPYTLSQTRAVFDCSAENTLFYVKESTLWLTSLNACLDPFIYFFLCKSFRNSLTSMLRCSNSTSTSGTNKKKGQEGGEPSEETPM

[12] = biological target: T8, P2X2R (Rattus norvegicus, UniProt P49653); experiment: ATP-induced [Ca2+]i shifts in PC12 cells; type: cell-based; settings: 1 μM
T8 construct: endogenous in cells; host or cells: PC12 cells
T8 sequence (P49653 1-472): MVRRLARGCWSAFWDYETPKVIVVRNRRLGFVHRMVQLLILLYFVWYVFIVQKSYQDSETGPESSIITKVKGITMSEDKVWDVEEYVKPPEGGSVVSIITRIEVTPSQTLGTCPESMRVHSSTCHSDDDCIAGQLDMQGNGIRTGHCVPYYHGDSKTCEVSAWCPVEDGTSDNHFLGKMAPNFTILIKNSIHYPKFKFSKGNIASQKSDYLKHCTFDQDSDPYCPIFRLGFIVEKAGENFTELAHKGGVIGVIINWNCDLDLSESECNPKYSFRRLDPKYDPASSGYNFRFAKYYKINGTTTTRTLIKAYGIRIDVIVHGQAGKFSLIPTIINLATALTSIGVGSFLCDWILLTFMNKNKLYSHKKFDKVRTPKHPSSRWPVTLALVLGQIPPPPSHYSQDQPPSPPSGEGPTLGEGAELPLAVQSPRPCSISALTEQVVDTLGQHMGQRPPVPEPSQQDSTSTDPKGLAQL
Protocol: as §1

[13] = biological target: T9, P2Y1R (Mus musculus, UniProt P49650); experiment: ADP-induced [Ca2+]i shifts in mouse peritoneal macrophages; type: cell-based; settings: 1 μM
T9 construct: endogenous in cells; host or cells: mouse peritoneal macrophages
T9 sequence (P49650 whole entry): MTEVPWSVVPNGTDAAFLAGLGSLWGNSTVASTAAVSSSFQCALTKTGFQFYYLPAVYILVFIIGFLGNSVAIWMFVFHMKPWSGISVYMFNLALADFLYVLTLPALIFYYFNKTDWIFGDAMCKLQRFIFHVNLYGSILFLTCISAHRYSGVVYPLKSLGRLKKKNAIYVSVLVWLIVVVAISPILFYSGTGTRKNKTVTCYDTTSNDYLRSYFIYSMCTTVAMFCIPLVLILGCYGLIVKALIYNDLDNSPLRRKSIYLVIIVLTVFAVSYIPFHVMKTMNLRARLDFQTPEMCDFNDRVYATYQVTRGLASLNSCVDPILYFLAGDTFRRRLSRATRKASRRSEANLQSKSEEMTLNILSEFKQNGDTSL
Protocol: as §1

T1 sequence (P35383 whole entry): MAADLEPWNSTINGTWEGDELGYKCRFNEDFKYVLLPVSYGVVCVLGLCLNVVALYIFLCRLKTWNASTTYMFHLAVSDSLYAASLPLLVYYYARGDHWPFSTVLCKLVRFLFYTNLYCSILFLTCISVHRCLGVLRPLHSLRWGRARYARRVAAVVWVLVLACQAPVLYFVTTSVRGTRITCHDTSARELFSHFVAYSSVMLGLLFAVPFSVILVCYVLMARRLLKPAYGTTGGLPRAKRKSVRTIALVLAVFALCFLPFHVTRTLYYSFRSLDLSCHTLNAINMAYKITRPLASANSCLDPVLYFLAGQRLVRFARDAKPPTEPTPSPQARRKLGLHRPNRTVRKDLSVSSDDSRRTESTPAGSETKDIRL

Structure (SMILES): Cc1ccc2c(c1)C=Cc1cc(C)ccc1C2c1cn(Cc2ccc(C(=O)Nc3nn[nH]n3)o2)c(=O)[nH]c1=S [AR-C 118925XX]
- Effect on 2-S-UTP-activated [Ca2+]i shifts [1]: inhibited

Structure (SMILES): O=C1CN=C(c2cccc(Br)c2)c2oc3ccccc3c2N1 [Compound 5BDBD]
- Effect on ATP-induced [Ca2+]i shifts potentiated by 1 μM ivermectin [2]: inhibited

Structure (SMILES): Cc1nc(N=Nc2cc([N+](=O)[O-])ccc2Cl)c(COP(=O)(O)O)c(C=O)c1O [MRS2211]
- Effect on ADPβS-induced [Ca2+]i shifts [3]: inhibited

Structure (SMILES): S=C=Nc1cccc(NC(=S)NCCCCNC(=S)Nc2cccc(N=C=S)c2)c1 [MRS2578]
- Effect on MRS4062-induced [Ca2+]i shifts [4]: inhibited

Structure (SMILES): Cc1ccc(C(=O)Nc2cc(S(=O)(=O)O)cc3ccc(S(=O)(=O)O)cc23)cc1NC(=O)Nc1cc(C(=O)Nc2cc(S(=O)(=O)O)cc3ccc(S(=O)(=O)O)cc23)ccc1C [NF340]
- Effect on NAADP-induced [Ca2+]i shifts [5]: inhibited

Structure (SMILES): CCOc1ccc(Nc2ccc(/C(=C3C=C/C(=[N+](/CC)Cc4cccc(S(=O)(=O)[O-])c4)C=C/3C)c3ccc(N(CC)Cc4cccc(S(=O)(=O)O)c4)cc3C)cc2)cc1 [BBG, Brilliant Blue G, reference compound]
- IC50 [6]: 1900 ± 300 nM
- inhibition at 0.75 µM ([7]; BBG 750 nM, percentage relative to the maximum uptake of propidium stimulated by 1 mM ATP only): 78.8 ± 3.8%
- IC50 ([7]; propidium uptake assay, mice peritoneal macrophages): 1200 ± 100 nM
- % LDH release [8]: 13.2 ± 2.6%
- IC50 at 24 h [9]: 87000 ± 1000 nM
- IC50 [10]: 589 ± 12 nM

Structure (SMILES): CCCSc1nc(N[C@@H]2C[C@H]2c2ccc(F)c(F)c2)c2nnn([C@@H]3C[C@H](OCCO)[C@@H](O)[C@H]3O)c2n1 [Ticagrelor]
- Effect on 2MeSADP-activated [Ca2+]i shifts [11]: inhibited

Structure (SMILES): COc1cc(S(=O)(=O)O)cc2cc(S(=O)(=O)O)c(NC(=O)c3ccc(C)c(NC(=O)c4cccc(NC(=O)Nc5cccc(C(=O)Nc6cc(C(=O)Nc7cc8c(OC)cc(S(=O)(=O)O)cc8cc7S(=O)(=O)O)ccc6C)c5)c4)c3)cc12 [NF770]
- Effect on ATP-induced [Ca2+]i shifts [12]: inhibited

Structure (SMILES): CNc1ncnc2c1ncn2[C@H]1C[C@H](OP(=O)(O)O)[C@@H](COP(=O)(O)O)O1 [MRS 2179]
- Effect on ADP-induced [Ca2+]i shifts [13]: inhibited
